Experimental findings from US6355428B1, “Nucleic acid ligand interaction assays” (Genelabs Technologies, Inc., priority 1998, dated 2002) are described below.

Assay [1] deals with indicator oligo SEQ ID NO: 12 (mixed sequence) versus unlabeled competitor dsDNA. Description: ECL competitive assay with 12-base duplex competitor oligos. In kind it is binding. As to conditions: competitor having only one A/T base pair; 0.008 to 8.33 μM competitor. The procedure: Three 12-base duplex competitor oligos, containing 1-, 5-, and 8-base stretches of A/T's flanked by G/C sequences, were tested as competitors, using distamycin as the binding ligand and SEQ ID NO: 12 (mixed sequence) as the indicator oligo. The indicator pair was labeled with a 5′ ruthenium chelate on one strand and a 3′biotin on the complementary strand, as described above and in Example 14.
Distamycin was premixed at […] with 0.25 nM indicator oligo. The assay was conducted as described in Example 14, using the Igen Origen® apparatus. Ligand binding, which stabilizes the duplexed form of the indicator DNA, results in an increase in the ECL signal. Unlabeled competitor dsDNA (no ruthenium or biotin label) was then added at concentrations ranging from 0.008 to 8.33 μM, and the decrease in the signal was monitored, as shown in FIG. 13.
An indicator pair of oligonucleotides, having the sequence SEQ ID NO: 12 and complement, were labeled with a 5′ ruthenium (bipy) chelate on one strand, as described in U.S. Pat. No. 5,635,347 and references cited therein, and with a 3′ biotin on the complementary strand. […] The biotinylated strand of DNA was captured on the bead surface, and any ruthenium captured by the streptavidin via drug-stabilized hybridization of the indicator duplex was quantified with the IGEN Origen™ analyzer. […]

Assay [2] relates to F/Q indicator duplex of SEQ ID NO: 75 and SEQ ID NO: 76. Briefly: Kinetic strand displacement assay (fluorescence quenching). The assay is classed as binding. From the text: This version of the assay is based on the displacement of a shorter strand within an indicator duplex by a longer strand. […] Again, a duplex of first and second sequences, as described above, is used, but in this assay, the strands differ in length, thus creating a single stranded overhang region. In a fluorescence quenching assay format, for example, the “F” strand is generally longer than the “Q” strand. In most cases, a minimum overhang region of about 4-20 nucleotides is effective to initiate strand displacement. Because a longer region will increase the rate of displacement, and it is generally desirable in the assay to reduce the rate of displacement, so as to facilitate measurement, this length of 4-20 nucleotides is generally preferred. A length of 5-7 nucleotides is particularly preferred.
The first and second strands are allowed to form a duplex in the absence of the ligand. In the present example, the “F” and “Q” groups are thus in proximity, giving a minimum level (when Q is a quenching group) of fluorescence. The displacing strand is added, and the rate of displacement, as indicated by an increase (or other change) in fluorescence over time, is observed (see FIG. 2). The experiment is then repeated in the presence of increasing amounts of ligand. A strongly binding ligand will stabilize the initial duplex and thus slow the rate of displacement. It is also expected that a ligand binding closer to the overhang site will also have a greater effect on inhibiting displacement.
The displacing strand, having SEQ ID NO: 77 (Table VI), is added, and the increase in fluorescence is observed over time. […] About 0.08 μM drug was effective to detectably slow the rate of displacement, and at 1.25-2.5 μM, the increase at 2 hrs was reduced to about 40%.
A mixture was formed of 60 nM of a fluorescein labeled 28-nucleotide strand having SEQ ID NO: 75 (Table VI) and 90 nM of a Dabcyl™-labeled 21-nucleotide quenching strand (SEQ ID NO: 76) in a buffer containing 20 mM HEPES, pH 7.5, 0.1 mM EDTA, and 30 mM NaCl. The control experiment contained no added drug; for subsequent experiment, increasing amounts of netropsin were added. To start the displacement reaction, the displacing strand (SEQ ID NO: 77) was added at concentrations of 35 nM to 60 nM. The fluorescence of the system was then monitored every 5 minutes for 90 to 120 minutes.
The initial rate of the displacement reaction was calculated from plots of fluorescence vs. time as the slope of the fluorescence curve from 0 to 60 minutes.
Additional experiments were carried out in which specific, unlabeled DNA competitor duplexes, whose sequences are shown in Table VII, were added to the assay mixture.

As to `Cn1cc(NC(=O)c2cc(NC(=O)c3cc(NC=O)cn3C)cn2C)cc1C(=O)NCCC(=N)N` [Distamycin, distamycin], the “competition by competitor oligonucleotide (FIG. 13)” value in assay [1] is “little competition was observed”.
Consider `Cn1cc(NC(=O)c2cc(NC(=O)CN=C(N)N)cn2C)cc1C(=O)NCCC(=N)N` [Netropsin, netropsin], for which the “effect of unlabeled competitor duplex on rate of displacement in presence of drug (FIG. 16)” value in assay [2] (A/T rich competitor duplex SEQ ID NO: 78) is “rate of displacement is increased by increasing amounts of the A/T rich competitor duplex”. In addition, the “increase in fluorescence at 2 hrs” value in assay [2] (at 1.25-2.5 μM netropsin, about 175% in absence of drug) is “about 40%”. The “drug concentration effective to detectably slow the rate of displacement (FIG. 14)” value in assay [2] (displacing strand SEQ ID NO: 77) is reported as “About 0.08 μM”. In assay [2] (initial rate = slope 0 to 60 minutes), the “drug concentration giving notable decrease in initial rate of displacement (FIG. 15)” value is “about 0.08 μM”.
